Results on 36 molecules are retold here after patent US9073892B2, “Indazolyl triazol derivatives” (Merck Serono S.A., priority 2010, dated 2015).

pIC50: −log10 of the molar value. Bounds are passed on as bounds.

Assay [1] relates to T1, IRAK1/4 human.
T1 construct: fused on or other part: His tag and TEV cleavage site at the N-terminus
As to the kind of experiment: IRAK1/4 phosphorylation IC50 (enzymatic assay, table 2). It is filed as biochemical. As to conditions: human IRAK1/4 phosphorylation. The method, boiled down: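 The IC50 values describe inhibition of His-TEV-tagged human IRAK-1 or IRAK-4. Each enzyme was incubated with ATP and compounds in DMSO at 20 µM to 1 nM for 2 or 3 hours, with STK1-biotin peptide included for IRAK-4.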

The test system of assay [2] is IL1β-induced IL8 release in THP1 cells. As to the kind of experiment: IRAK IL8 secretion functional assay. As to conditions: Homo sapiens; THP-1 cells, IL1β 100 ng/ml overnight, IL8 by HTRF; read-out: IC50, Secretion THP-1/IL-β induced IL8 release. The class given is cell-based. The source says:
IRAK IL8 Secretion Functional Assay:
THP1 cells are human monocytes derived from acute monocytic leukemia. IL1β receptor expressed on the surface membrane of THP1 cells induced IL8 release. IRAKs are kinase signaling downstream of TLRs and TNF, IL-18, IL-33 and IL-1 receptors.
In cells, IRAK4 is upstream of IRAK1.
The Human IL8 Kit, provided by CysBio International based in Bagnols/Cèze FR, allows for the quantitative determination of IL-8 in cell-culture supernatants.
Anti-cytokine IL8 antibodies are respectively labeled with europium Cryptate and XL665. Upon their binding to IL-8 molecules, the two antibodies come into close proximity, allowing FRET (Fluorescence Resonance Energy Transfer) to occur. This FRET increases proportionally to IL-8 concentrations and be converted in IL8 pg amounts.
THP-1 cells are seeded on Day 1 in 384 well plate with RPMI 1640 at a density of 30 000 cells/well. Compounds 4×/2% DMSO (range of concentrations from 20 μM to 1 nM) and IL1β 4× at 100 ng/ml final are added to cells overnight at 37° C., 5% CO2. Measurement of IL-8 secretion is done by mixing on Day2 10 μl of supernatant with 10 μl of a mix solution of europium Cryptate and XL665 (v:v) as described by supplier.
HTRF (homogeneous time resolved fluorescence) signal is measured after 3 hours incubation time at 30° C. with a BMG Pherastar reader or equivalent.
A general note: TR-FRET usually uses a lanthanide donor and a delayed reading to cut background.

As for `CC(=O)N1CCC(c2ccc3[nH]nc(-c4cn(-c5ccc(C(=O)N6CCOCC6)cc5)nn4)c3c2)CC1` [Example 105, 5-(1-acetylpiperidin-4-yl)-3-{1-[4-(morpholin-4-ylcarbonyl)phenyl]-1H-1,2,3-triazol-4-yl}-1H-indazole], the figures for the pIC50 in assay [1] and in assay [2] were 6.00 to 7.00 and 5.30 to 6.00, respectively.

Take `O=C(NCc1ccco1)c1ccc(-n2cc(-c3n[nH]c4ccccc34)nn2)cc1` [Example 51, N-(2-furylmethyl)-4-[4-(1H-indazol-3-yl)-1H-1,2,3-triazol-1-yl]benzamide]: the values for the pIC50 in assay [1] and in assay [2] were 6.00 to 7.00 and 5.30 to 6.00, respectively.

With `CCN1CCN(C(=O)c2cccc(-n3cc(-c4n[nH]c5ccccc45)nn3)c2)CC1` [Example 60, 3-(1-{3-[(4-ethylpiperazin-1-yl)carbonyl]phenyl}-1H-1,2,3-triazol-4-yl)-1H-indazole], the pIC50 in assay [1] and in assay [2] was 5.30 to 6.00 in each case.

Regarding `O=C(c1ccc(-n2cc(-c3n[nH]c4ccc(C5CCN(CCF)CC5)cc34)nn2)cc1)N1CCOCC1` [Example 121, 5-[1-(2-fluoroethyl)piperidin-4-yl]-3-{1-[4-(morpholin-4-ylcarbonyl)phenyl]-1H-1,2,3-triazol-4-yl}-1H-indazole], the pIC50 is more than 7.00 in assay [1] and 6.00 to 7.00 in assay [2].

For the molecule `CN(C)CCC1CCCCN1C(=O)c1ccc(-n2cc(-c3n[nH]c4ccccc34)nn2)cc1` (centres unmarked) [Example 92], the pIC50 in assay [1] and in assay [2] was 6.00 to 7.00 in each case.

For `Cc1ccc2[nH]nc(-c3cn(-c4ccc(CN5CCN(C)CC5)cc4)nn3)c2c1` [Example 9, 5-methyl-3-(1-{4-[(4-methylpiperazin-1-yl)methyl]phenyl}-1H-1,2,3-triazol-4-yl)-1H-indazole], the results for the pIC50 in assay [1] and in assay [2] were 5.30 to 6.00 and 6.00 to 7.00, respectively.

Take `COC1CCCN(C(=O)c2ccc(-n3cc(-c4n[nH]c5ccccc45)nn3)cc2)C1` (centres unmarked) [Example 127]: the pIC50 in assay [1] is more than 7.00; in assay [2], 6.00 to 7.00.

`COC[C@@H]1CCCN1C(=O)c1ccc(-n2cc(-c3n[nH]c4ccccc34)nn2)cc1` [Example 108, 3-[1-(4-{[(2S)-2-(methoxymethyl)pyrrolidin-1-yl]carbonyl}phenyl)-1H-1,2,3-triazol-4-yl]-1H-indazole]: the values for the pIC50 in assay [1] and in assay [2] were more than 7.00 and 6.00 to 7.00, respectively.

Turning to `CN(C)CC1CCN(C(=O)c2ccc(-n3cc(-c4n[nH]c5ccccc45)nn3)cc2)CC1` [Example 91, 1-(1-{4-[4(1H-indazol-3-yl)-1H-1,2,3-triazol-1-yl]benzoyl}piperidin-4-yl)-N,N-dimethylmethanamine], the pIC50 in assay [1] and in assay [2] was 6.00 to 7.00 throughout.

Take `CN(C)C(=O)c1ccc(-n2cc(-c3n[nH]c4ccccc34)nn2)cc1` [Example 36, 4-[4-(1H-indazol-3-yl)-1H-1,2,3-triazol-1-yl]-N,N-dimethylbenzamide]: the pIC50 in assay [1] and in assay [2] was 6.00 to 7.00 throughout.

With `CNC(=O)c1ccc(-n2cc(-c3n[nH]c4ccccc34)nn2)cc1` [Example 54, 4-[4-(1H-indazol-3-yl)-1H-1,2,3-triazol-1-yl]-N-methylbenzamide], the pIC50 in assay [1] and in assay [2] was 6.00 to 7.00 in each case.

On to `O=C(CCc1ccc(-n2cc(-c3n[nH]c4ccccc34)nn2)cc1)N1CCOCC1` [Example 22, 3-{1-[4-(3-morpholin-4-yl-3-oxopropyl)phenyl]-1H-1,2,3-triazol-4-yl}-1H-indazole], for which the pIC50 in assay [1] is 5.30 to 6.00; in assay [2] it was 6.00 to 7.00.

With `O=C(c1ccc(-n2cc(-c3n[nH]c4ccc(Cn5nc(-c6cc(F)cc(F)c6)ccc5=O)cc34)nn2)cc1)N1CCOCC1` [Example 94, 6-(3,5-difluorophenyl)-2-[(3-{1-[4-(morpholin-4-ylcarbonyl)phenyl]-1H-1,2,3-triazol-4-yl}-1H-indazol-5-yl)methyl]pyridazin-3(2H)-one], the values for the pIC50 in assay [1] and in assay [2] were more than 7.00 and 6.00 to 7.00, respectively.

Turning to `COc1cc(-n2cc(-c3n[nH]c4ccccc34)nn2)ccc1C(=O)N(C)C` [Example 25, 4-[4-(1H-indazol-3-yl)-1H-1,2,3-triazol-1-yl]-2-methoxy-N,N-dimethylbenzamide], the pIC50 in assay [1] and in assay [2] was 6.00 to 7.00 each time.

With `CN1CCC(n2cc(NC(=O)c3ccc(-n4cc(-c5n[nH]c6ccccc56)nn4)cc3)cn2)CC1` [Example 98, 4-[4-(1H-indazol-3-yl)-1H-1,2,3-triazol-1-yl]-N-[1-(1-methylpiperidin-4-yl)-1H-pyrazol-4-yl]benzamide], the pIC50 in assay [1] is more than 7.00; in assay [2] it was 6.00 to 7.00.

For the molecule `O=C(c1ccc(-n2cc(-c3n[nH]c4ccccc34)nn2)cc1)N1CCC[C@H](O)C1` [Example 97, (3S)-1-{4-[4-(1H-indazol-3-yl)-1H-1,2,3-triazol-1-yl]benzoyl}piperidin-3-ol], the pIC50 in assay [1] and in assay [2] was 6.00 to 7.00 in each case.

On to `O=C(NC1CC1)c1ccc(-n2cc(-c3n[nH]c4ccccc34)nn2)cc1` [Example 53, N-cyclopropyl-4-[4-(1H-indazol-3-yl)-1H-1,2,3-triazol-1-yl]benzamide], for which the pIC50 in assay [1] and in assay [2] was 6.00 to 7.00 each time.

In turn, `O=C(c1ccc(-n2cc(-c3n[nH]c4ccc(NCC5CCOCC5)cc34)nn2)cc1)N1CCOCC1` [Example 248] gave a pIC50 in assay [1] of 6.00 to 7.00.

As for `CCN1CCCC1CNC(=O)c1ccc(-n2cc(-c3n[nH]c4ccccc34)nn2)cc1` (centres unmarked) [Example 47, N-[(1-ethylpyrrolidin-2-yl)methyl]-4-[4-(1H-indazol-3-yl)-1H-1,2,3-triazol-1-yl]benzamide], the pIC50 in assay [1] is 6.00 to 7.00.

Consider `CC1(C)CN(Cc2ccc(-n3cc(-c4n[nH]c5cc(F)ccc45)nn3)cc2)CCO1` [Example 283], for which the pIC50 in assay [1] is 5.30 to 6.00.

For `CN(CCNC(=O)c1cccc(-n2cc(-c3n[nH]c4ccccc34)nn2)c1)C1CCCCC1` [Example 64, N-{2-[cyclohexyl(methyl)amino]ethyl}-3-[4-(1H-indazol-3-yl)-1H-1,2,3-triazol-1-yl]benzamide], the pIC50 in assay [1] was 5.30 to 6.00.

With `CC(=O)N1CCC(c2ccc(-n3cc(-c4n[nH]c5ccccc45)nn3)cc2)CC1` [Example 134, 3-{1-[4-(1-acetylpiperidin-4-yl)phenyl]-1H-1,2,3-triazol-4-yl}-1H-indazole], the pIC50 in assay [1] is 6.00 to 7.00.

In turn, `O=C(c1ccc(-n2cc(-c3n[nH]c4ccccc34)nn2)cc1)N1CCN2CCCC2C1` (centres unmarked) [Example 166] showed a pIC50 in assay [1] of 6.00 to 7.00.

For `OC(CN1CCC(c2ccc(-n3cc(-c4n[nH]c5cc(F)ccc45)nn3)cc2)CC1)C(F)(F)F` (centres unmarked) [Example 271], in assay [1], the pIC50 was 6.00 to 7.00.

In turn, `O=C(c1ccc(-n2cc(-c3n[nH]c4ccc(Cn5nc(-c6ccc(O)c(F)c6)ccc5=O)cc34)nn2)cc1)N1CCOCC1` [Example 190] had a pIC50 in assay [1] of more than 7.00.

In assay [1], `O=C(c1ccc(-n2cc(-c3n[nH]c4ccc(F)cc34)nn2)cc1)N1CCOCC1` [Example 157] had a pIC50 of 6.00 to 7.00.

`O=C(c1ccc(-n2cc(-c3n[nH]c4cccc(F)c34)nn2)cc1)N1CCOCC1` [Example 182] had a pIC50 in assay [1] of 5.30 to 6.00.

For the molecule `COc1cnccc1-c1ccc2[nH]nc(-c3cn(-c4ccc(C(=O)N5CCOCC5)cc4)nn3)c2c1` [Example 181], in assay [1], the pIC50 is 6.00 to 7.00.

Molecule `O=C(c1ccc(-n2cc(-c3n[nH]c4ccc(OCCCO)cc34)nn2)cc1)N1CCOCC1` [Example 153, 3-[(3-{1-[4-(morpholin-4-ylcarbonyl)phenyl]-1H-1,2,3-triazol-4-yl}-1H-indazol-5-yl)oxy]propan-1-ol] gave a pIC50 in assay [1] of 6.00 to 7.00.

In turn, `O=C(c1ccc(-n2cc(-c3n[nH]c4ccc(O)cc34)nn2)cc1)N1CCOCC1` [Example 192] had a pIC50 in assay [1] of more than 7.00.

`CN1CCC(n2cc(-n3cc(-c4n[nH]c5ccccc45)nn3)cn2)CC1` [Example 186] showed a pIC50 in assay [1] of more than 7.00.

Turning to `O=C(c1cccc(-n2cc(-c3n[nH]c4ccccc34)nn2)c1)N1CCCCC1` [Example 67, 3-{1-[3-(piperidin-1-ylcarbonyl)phenyl]-1H-1,2,3-triazol-4-yl}-1H-indazole], in assay [1], the pIC50 was 5.30 to 6.00.

With `c1ccc2c(-c3cn(-c4ccc(N5CCOCC5)nc4)nn3)n[nH]c2c1` [Example 20, 3-[1-(6-morpholin-4-ylpyridin-3-yl)-1H-1,2,3-triazol-4-yl]-1H-indazole], the pIC50 in assay [1] is 5.30 to 6.00.

Consider `FC(F)(F)c1ccc2c(-c3cn(-c4ccc(CN5CCOCC5)cc4)nn3)n[nH]c2c1` [Example 297], for which, in assay [1], the pIC50 was 5.30 to 6.00.

`O=C(c1ccc(-n2cc(-c3n[nH]c4ccc(Cn5nc(-c6cccnc6)ccc5=O)cc34)nn2)cc1)N1CCOCC1` [Example 177] showed a pIC50 in assay [1] of more than 7.00.

For the molecule `O=c1ccc(-c2cccc(O)c2)nn1Cc1ccc2[nH]nc(-c3cn(-c4ccc(CN5CCOCC5)cc4)nn3)c2c1` [Example 200], in assay [1], the pIC50 was more than 7.00.
